# Results from ChEMBL document CHEMBL1201862, “PubChem BioAssay data set” (2004).
#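 Cultured in 96-well plates, cells were exposed to test compound for 48 hours across five concentrations. GI50 is the concentration that inhibits growth by half.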 The source made the active and inactive calls. No stated cut-off is given here; in the data, active = GI50 up to about 1.1 µM and inactive = higher.
# Columns and labels:
# Assay in all cases: NCI tumour cell line growth inhibition, 48 h
# M14 = tested on: M14
# U-251 = tested on: U-251
# T47D = tested on: T47D
# UO-31 = tested on: UO-31
# OVCAR-3 = tested on: OVCAR-3
# UACC-62 = tested on: UACC-62
# OVCAR-5 = tested on: OVCAR-5
# HT-29 = tested on: HT-29
# DU-145 = tested on: DU-145
# HCT-116 = tested on: HCT-116
# HOP-92 = tested on: HOP-92
# NCI-H226 = tested on: NCI-H226
# SNB-19 = tested on: SNB-19
# RPMI-8226 = tested on: RPMI-8226
# HOP-62 = tested on: HOP-62
# NCI-H460 = tested on: NCI-H460
# IGROV-1 = tested on: IGROV-1
# NCI/ADR-RES = tested on: NCI/ADR-RES
# MDA-MB-435 = tested on: MDA-MB-435
# TK-10 = tested on: TK-10
# CCRF-CEM = tested on: CCRF-CEM
# MDA-MB-231 = tested on: MDA-MB-231
# LOX IMVI = tested on: LOX IMVI
# MDA-N = tested on: MDA-N
# SN12C = tested on: SN12C
# NCI-H522 = tested on: NCI-H522
# SK-MEL-5 = tested on: SK-MEL-5
# Malme-3M = tested on: Malme-3M
# SK-MEL-28 = tested on: SK-MEL-28
# KM12 = tested on: KM12
# MCF7 = tested on: MCF7
# A498 = tested on: A498
# RXF 393 = tested on: RXF 393
# OVCAR-8 = tested on: OVCAR-8
# EKVX = tested on: EKVX
# SR = tested on: SR
# PC-3 = tested on: PC-3
# HCC 2998 = tested on: HCC 2998
# COLO 205 = tested on: COLO 205
# A549 = tested on: A549
# SNB-75 = tested on: SNB-75
# BT-549 = tested on: BT-549
# OVCAR-4 = tested on: OVCAR-4
# SK-OV-3 = tested on: SK-OV-3
# UACC-257 = tested on: UACC-257
# SW-620 = tested on: SW-620
# SF-268 = tested on: SF-268
# SK-MEL-2 = tested on: SK-MEL-2
# Hs-578T = tested on: Hs-578T
# ACHN = tested on: ACHN
# SF-295 = tested on: SF-295
# K562 = tested on: K562
# CAKI-1 = tested on: CAKI-1
# NCI-H23 = tested on: NCI-H23
# HL-60 = tested on: HL-60
# HCT-15 = tested on: HCT-15
# 786-0 = tested on: 786-0
# SF-539 = tested on: SF-539
smiles,measurement,setting,value
CCC(Nc1ncnc2nc[nH]c12)C(=O)O (centres undefined),GI50,M14,> 100 µM (inactive)
same,GI50,U-251,> 100 µM (inactive)
same,GI50,T47D,> 100 µM (inactive)
same,GI50,UO-31,> 100 µM (inactive)
same,GI50,OVCAR-3,> 100 µM (inactive)
same,GI50,UACC-62,> 100 µM (inactive)
same,GI50,OVCAR-5,> 100 µM (inactive)
same,GI50,HT-29,> 100 µM (inactive)
same,GI50,DU-145,> 100 µM (inactive)
same,GI50,HCT-116,> 100 µM (inactive)
same,GI50,HOP-92,> 100 µM (inactive)
same,GI50,NCI-H226,> 100 µM (inactive)
same,GI50,SNB-19,> 100 µM (inactive)
same,GI50,RPMI-8226,> 100 µM (inactive)
same,GI50,HOP-62,> 100 µM (inactive)
same,GI50,NCI-H460,> 100 µM (inactive)
same,GI50,IGROV-1,> 100 µM (inactive)
same,GI50,NCI/ADR-RES,> 100 µM (inactive)
same,GI50,MDA-MB-435,> 100 µM (inactive)
same,GI50,TK-10,> 100 µM (inactive)
same,GI50,CCRF-CEM,> 100 µM (inactive)
same,GI50,MDA-MB-231,> 100 µM (inactive)
same,GI50,LOX IMVI,> 100 µM (inactive)
same,GI50,MDA-N,> 100 µM (inactive)
same,GI50,SN12C,> 100 µM (inactive)
same,GI50,NCI-H522,> 100 µM (inactive)
same,GI50,SK-MEL-5,> 100 µM (inactive)
same,GI50,Malme-3M,> 100 µM (inactive)
same,GI50,SK-MEL-28,> 100 µM (inactive)
same,GI50,KM12,> 100 µM (inactive)
same,GI50,MCF7,> 100 µM (inactive)
same,GI50,A498,> 100 µM (inactive)
same,GI50,RXF 393,> 100 µM (inactive)
same,GI50,OVCAR-8,> 100 µM (inactive)
same,GI50,EKVX,> 100 µM (inactive)
same,GI50,SR,> 100 µM (inactive)
same,GI50,PC-3,> 100 µM (inactive)
same,GI50,HCC 2998,> 100 µM (inactive)
same,GI50,COLO 205,> 100 µM (inactive)
same,GI50,A549,> 100 µM (inactive)
same,GI50,SNB-75,26.2 µM (inactive)
same,GI50,BT-549,> 100 µM (inactive)
same,GI50,OVCAR-4,> 100 µM (inactive)
same,GI50,SK-OV-3,> 100 µM (inactive)
same,GI50,UACC-257,> 100 µM (inactive)
same,GI50,SW-620,> 100 µM (inactive)
same,GI50,SF-268,> 100 µM (inactive)
same,GI50,SK-MEL-2,> 100 µM (inactive)
same,GI50,Hs-578T,> 100 µM (inactive)
same,GI50,ACHN,> 100 µM (inactive)
same,GI50,SF-295,> 100 µM (inactive)
same,GI50,K562,> 100 µM (inactive)
same,GI50,CAKI-1,> 100 µM (inactive)
same,GI50,NCI-H23,> 100 µM (inactive)
same,GI50,HL-60,> 100 µM (inactive)
same,GI50,HCT-15,> 100 µM
same,GI50,786-0,> 100 µM (inactive)
Cc1ccc2nc(N/N=C/c3cccc(C)n3)cc(C)c2c1,GI50,M14,24.2 µM (inactive)
same,GI50,U-251,16.9 µM (inactive)
same,GI50,T47D,16 µM (inactive)
same,GI50,UO-31,19.7 µM (inactive)
same,GI50,OVCAR-3,14 µM (inactive)
same,GI50,UACC-62,15.2 µM (inactive)
same,GI50,OVCAR-5,14.3 µM (inactive)
same,GI50,HT-29,12.3 µM (inactive)
same,GI50,DU-145,17.3 µM (inactive)
same,GI50,HCT-116,14.7 µM (inactive)
same,GI50,HOP-92,17.6 µM (inactive)
same,GI50,NCI-H226,24.7 µM (inactive)
same,GI50,SNB-19,20.5 µM (inactive)
same,GI50,RPMI-8226,14 µM (inactive)
same,GI50,HOP-62,16 µM (inactive)
same,GI50,NCI-H460,6.89 µM (inactive)
same,GI50,IGROV-1,13.9 µM (inactive)
same,GI50,NCI/ADR-RES,16.2 µM (inactive)
same,GI50,MDA-MB-435,15.7 µM (inactive)
same,GI50,TK-10,14.7 µM (inactive)
same,GI50,MDA-MB-231,18.6 µM (inactive)
same,GI50,LOX IMVI,15.1 µM (inactive)
same,GI50,MDA-N,16.3 µM (inactive)
same,GI50,SN12C,17.2 µM (inactive)
same,GI50,NCI-H522,17.6 µM (inactive)
same,GI50,SK-MEL-5,17.2 µM (inactive)
same,GI50,Malme-3M,16 µM (inactive)
same,GI50,SK-MEL-28,17.1 µM (inactive)
same,GI50,KM12,12.7 µM (inactive)
same,GI50,MCF7,13.6 µM (inactive)
same,GI50,A498,17.9 µM (inactive)
same,GI50,RXF 393,16.5 µM (inactive)
same,GI50,OVCAR-8,20.5 µM (inactive)
same,GI50,EKVX,16.6 µM (inactive)
same,GI50,SR,16.4 µM (inactive)
same,GI50,PC-3,17.7 µM (inactive)
same,GI50,HCC 2998,12.6 µM (inactive)
same,GI50,COLO 205,15 µM (inactive)
same,GI50,A549,16 µM (inactive)
same,GI50,SNB-75,19.7 µM (inactive)
same,GI50,BT-549,18.8 µM (inactive)
same,GI50,OVCAR-4,16.6 µM (inactive)
same,GI50,SK-OV-3,15.4 µM (inactive)
same,GI50,UACC-257,16.9 µM (inactive)
same,GI50,SW-620,17.1 µM (inactive)
same,GI50,SF-268,17.2 µM (inactive)
same,GI50,SK-MEL-2,18.8 µM (inactive)
same,GI50,Hs-578T,23.8 µM (inactive)
same,GI50,ACHN,15.7 µM (inactive)
same,GI50,SF-539,17.8 µM (inactive)
same,GI50,SF-295,15.4 µM (inactive)
same,GI50,K562,45 µM (inactive)
same,GI50,CAKI-1,16.8 µM (inactive)
same,GI50,NCI-H23,18.8 µM (inactive)
same,GI50,HL-60,2.26 µM (inactive)
same,GI50,HCT-15,14.2 µM
same,GI50,786-0,16.2 µM (inactive)
